Results on four molecules are retold here after US6242432A, “Antithrombotic organic nitrates” (Nicox S.A., priority 1996, dated 2001).

Data set [1] relates to bronchoconstriction induced by capsaicin. In words: Effects on capsaicin-induced bronchoconstriction. The format is in vivo, female Guinea pigs. Particulars: Guinea pigs, 10 mg/kg intraduodenal; capsaicin 1 μg/kg 45 min later; vehicle = 100. As to the method: Bronchoconstriction induced by capsaicin in Guinea pigs is an animal model related to the ability of ACE (angiotensin-converting enzyme) inhibitors to cause cough in patients (Subissi et al., J. Cardiovasc. Pharmacol.20/1,139-146, 1992).
Adopted test conditions were as previously described by Del Soldato et al. (J. Pharmacological Methods 5, 279, 1981). Female Guinea pigs weighing 300 to 400 g were anaesthetised by intraperitoneal injection of sodium 5,5-diethylbarbiturate (200 mg/kg) and maintained under artificial respiration at constant positive pressure. The right jugular vein was incannulated for administering […]. By a median incision of the abdomen, the duodenum was removed and through a small incision the tip of a suitable polyethylene cannula was inserted and fixed. The other end of the cannula was connected to a syringe for intraduodenal administration of NO-ENA (10 mg/kg), enalapril (10 mg/kg) or vehicle. […] Before and after injection of capsaicin, changes in the tidal area were measured by a modified Konzett apparatus connected to a suitable polygraphic amplifier (Hewlett Packard).
The results were calculated as the ratio of the responses obtained before and after administration of the test compound, expressed as a % of the response obtained with the vehicle alone, shown in Table 4.

Data set [2] concerns arterial hypertension induced by L-NAME. In words: Antihypertensive activity: L-NAME induced arterial hypertension. The format is in vivo, male Wistar rats. Particulars: rats, 10 mg/kg intravenous daily for 5 days, 1 h after treatment, vehicle 170 ± 7, * P < 0.05 versus the other two groups. The protocol: (§1) The products from Examples 1 and 2 had been administered in vivo always as 2%-by-weight suspensions in carboxymethyl cellulose.
(§2) The experimental groups were made up of 6 to 8 samples to allow appropriate statistical evaluation, which was carried out when needed.
The ability of NO-ENA to inhibit hypertension was evaluated using an in vivo model as described by Ribeiro et al. (Hypertension 20, 298, 1992). 5 groups of male Wistar rats (235 to 284 g) received a daily intravenous dose of 10 mg/kg of, respectively, NO-ENA, enalapril, NO-TIM, timolol or vehicle for 5 days. Arterial hypertension was induced by administration of N^w -nitro-L-argininemethyl ester (L-NAME) in the drinking water for 6 weeks. L-NAME was dissolved in the drinking water at a concentration of 60 to 70 mg 100 ml^-1 so as to administer a daily amount of about 60 mg kg^-1. One hour after treatment the systemic blood pressure was measured by the tail-cap method (Zats, Lab. Anim. Sci.42, 198, 1990).

Data set [3] relates to platelet aggregation induced by collagen. Briefly: Antiplatelet activity: inhibition of collagen-induced platelet aggregation in vivo. Set-up: species or system male Wistar rats. Particulars: rats, 10 mg/kg oral daily for 5 days; collagen 2 mg/kg i.v.; per-cent inhibition of the control group. As to the method: as §1, §2
The ability of NO-ENA and NO-TIM to inhibit platelet aggregation was evaluated using an in vivo model as described by Pinon (J. Pharmacol. Methods 12,79,1989). 5 groups of male Wistar rats (200 to 250 g) received an oral daily dose of 10 mg/kg of respectively, NO-ENA, enalapril, NO-TIM, timolol or vehicle for 5 days. At an appropriate time on the forth day food (but not water) was withdrawn. 18 to 20 hours later the animals received the last treatment. One hour later the animals were anaesthetized with 10% urethane ([…] intraperitoneally) and the left jugular vein and right carotid artery were incannulated. Collagen (type 6, Sigma) was then administered intravenously at a dose of 2 mg/kg. Three minutes later two blood samples (A and B) were collected from the carotide artery using 2.5-ml plastic syringes in the following manner: sample A, 0.4 ml of blood in 1.6 ml of EDTA/formalin buffer (ETDA tetrasodium salt 24 mM, KH2 PO4 1.3 mM, Na2 PO4 13.4 mM), the samples were then transferred into 5-ml polystyrene test tubes and allowed to settle for 15 minutes at ambient temperature. After this time, the platelet aggregations in sample A were fixed in formalin, while those from sample B were treated with EDTA. Platelet count was then made in each sample using a conventional microscope. The count for sample B was the total number of platelets, while for sample A were considered only non-aggregated platelets. The results were expressed as per-cent aggregation, calculated as follows: {[1-(platelet count in sample A)/(platelet count in sample B)]×100}.

The subject of data set [4] is thrombosis induced by collagen plus adrenaline. In words: Antithrombotic activity: collagen plus adrenaline induced thrombosis/death. The format is in vivo, male Charles River rats of the Swiss strain. Particulars: 10 mg/kg oral daily for 5 days; collagen plus adrenaline 100 μM into caudal vein. The protocol: as §1, §2
5 groups of male Charles River rats of the Swiss strain, 15 to 20 g, received a daily oral dose of 10 mg/kg of, respectively, NO-ENA, enalapril, NO-TIM, timolol or vehicle for 5 days. At an appropriate time on the fourth day food (but not water) was withdrawn. 18 to 20 hours later the animals received the last treatment. One hour later the animals were injected into the caudal vein with 0.1 ml of a collagen (type 6, Sigma) mixture plus adrenaline hydrochloride (100 μM) diluted in a solution of 0.154 M sodium chloride. As previously explained (Cirino G. et al., Thrombosis Reasearch 79, 73, 1995), injection of this mixture caused death within 3 minutes in 90% of the control animals.

The next data set relates to intraocular pressure. In words: Ocular hypotensive activity, topical application in rabbits. The data set is classed as in vivo. Particulars: topical application of 100 μg.
The nature of data set [5]: Plasma/aqueous humor concentration ratio by HPLC (ocular safety). The format is in vivo. Particulars: rabbits, topical, versus timolol. The protocol: Furthermore, for NO-TIM, the ratio between product concentrations in plasma (P) and aqueous humor (AH) versus timolol was determined by an HPLC method.

In the case of `CCOC(=O)[C@H](CCc1ccccc1)N[C@@H](C)C(=O)N1CCC[C@H]1C(=O)O` [ENALAPRIL, reference compound], the “BRONCHOCONSTRICTIVE RESPONSE (% of the response obtained with the vehicle alone)” value in data set [1] is listed as 327%. In addition, the “MEAN BLOOD PRESSURE” value in data set [2] is 163 ± 5 mmHg. Also, the “ANTIPLATELET ACTIVITY (per-cent inhibition of platelet aggregation versus vehicle control)” value in data set [3] amounted to 15%. Besides, the “ANTITHROMBOTIC ACTIVITY (inhibition percentage compared to the control group)” value in data set [4] was determined as 11%.

`CCOC(=O)C(CCc1ccccc1)NC(C)C(=O)N1CCC[C@H]1C(=O)Oc1cccc(CO[N+](=O)[O-])c1` (stereo partly shown) [NO-ENA]: the “BRONCHOCONSTRICTIVE RESPONSE (% of the response obtained with the vehicle alone)” value in data set [1] was 72%. Also, the “MEAN BLOOD PRESSURE” value in data set [2] is given as 115 ± 4 mmHg. Besides, in the data set with intraocular pressure, the “duration of intraocular pressure reduction” value is recorded as “more than 6 hours”; the “reduction of intraocular pressure” value is listed as 6 mmHg; the “reduction of intraocular pressure versus timolol and enalapril” value is “more pronounced and more lasting”. Besides, the “ANTIPLATELET ACTIVITY (per-cent inhibition of platelet aggregation versus vehicle control)” value in data set [3] stood at 65%. Moreover, the “ANTITHROMBOTIC ACTIVITY (inhibition percentage compared to the control group)” value in data set [4] is reported as 53%.

Regarding `CC(C)(C)NC[C@H](COc1nsnc1N1CCOCC1)OC(=O)CCCO[N+](=O)[O-].O=C(O)/C=C\C(=O)O` [NO-TIM, (R)-(4-nitroxy)butanoate of 1-[(1,1-dimethylethyl)amino]-3-{[4-(4-morpholinyl)-1,2,5-thiadiazol-3-yl]oxy}-2-propyl maleate], in the data set on intraocular pressure, the “duration of intraocular pressure reduction” value is “more than 6 hours”; the “reduction of intraocular pressure” value turned out to be 7 mmHg; the “reduction of intraocular pressure versus timolol and enalapril” value was “more pronounced and more lasting”. The “P/AH ratio (plasma/aqueous humor concentration), times lower than that for timolol” value in data set [5] turned out to be 5.5 times. Moreover, the “ANTIPLATELET ACTIVITY (per-cent inhibition of platelet aggregation versus vehicle control)” value in data set [3] is 58%. Also, the “ANTITHROMBOTIC ACTIVITY (inhibition percentage compared to the control group)” value in data set [4] was 44%.

With `CC(C)(C)NC[C@H](O)COc1nsnc1N1CCOCC1` [TIMOLOL, reference compound], the “ANTIPLATELET ACTIVITY (per-cent inhibition of platelet aggregation versus vehicle control)” value in data set [3] is 2%. The “ANTITHROMBOTIC ACTIVITY (inhibition percentage compared to the control group)” value in data set [4] is 6%.
